Reference: the NIST ThermoML archive (doi:10.1016/j.tca.2012.07.021)

Tests used:
[1] = Crystal; DTA
[2] = Molar enthalpy of transition or fusion; conditions: Crystal; DSC
[3] = molar heat capacity at constant pressure; conditions: 101.33 kPa, Crystal, Small sample (50 mg) DSC

O.O.O.O.O.O.[Cl-].[Cl-].[Mg+2] [magnesium chloride hexahydrate]
Conditions | Molar enthalpy of transition or fusion [kcal/mol] | Normal melting temperature [°C]
[1] | – | 117.5
[2] | 8.21 | –

[3]
Conditions | molar heat capacity at constant pressure [J/K/mol]
298.15 K | 336.4
299.15 K | 336.1
300.15 K | 336.2
301.15 K | 336.7
302.15 K | 337.2
303.15 K | 337.8
304.15 K | 338.3
305.15 K | 338.8
306.15 K | 339.3
307.15 K | 339.8
308.15 K | 340.3
309.15 K | 340.9
310.15 K | 341.4
311.15 K | 342
312.15 K | 342.5
313.15 K | 343
314.15 K | 343.5
315.15 K | 344.1
316.15 K | 344.6
317.15 K | 345.2
318.15 K | 345.7
319.15 K | 346.3
320.15 K | 346.9
321.15 K | 347.4
322.15 K | 348
323.15 K | 348.5
324.15 K | 349.1
325.15 K | 349.6
326.15 K | 350.1
327.15 K | 350.7
328.15 K | 351.3
329.15 K | 351.8
330.15 K | 352.4
331.15 K | 353
332.15 K | 353.6
333.15 K | 354.2
334.15 K | 354.8
335.15 K | 355.4
336.15 K | 355.9
337.15 K | 356.5
338.15 K | 357.1
339.15 K | 357.8
340.15 K | 358.4
341.15 K | 359.1
342.15 K | 359.7
343.15 K | 360.3
344.15 K | 360.9
345.15 K | 361.5
346.15 K | 362.2
347.15 K | 362.9
348.15 K | 363.6
349.15 K | 364.3
350.15 K | 365
351.15 K | 365.6
352.15 K | 366.3
353.15 K | 367
354.15 K | 367.8
355.15 K | 368.6
356.15 K | 369.3
357.15 K | 370.1
358.15 K | 370.8
359.15 K | 371.7
360.15 K | 372.4
361.15 K | 373.3
362.15 K | 374.2
363.15 K | 375.1
364.15 K | 376
365.15 K | 377
366.15 K | 377.9
367.15 K | 379
368.15 K | 380
369.15 K | 381.1
370.15 K | 382.1
371.15 K | 383.3
372.15 K | 384.4
373.15 K | 385.6
374.15 K | 386.8
375.15 K | 388.1
376.15 K | 389.3
377.15 K | 390.6
378.15 K | 392
379.15 K | 393.4
380.15 K | 394.9
381.15 K | 396.4
382.15 K | 397.8
383.15 K | 399.4
384.15 K | 401.3
385.15 K | 403.3
386.15 K | 405.5
387.15 K | 409.7
388.15 K | 418.7
389.15 K | 451.6
